≈ marks a conversion by molar mass, not a printed value.
System: not listed separately
Test: Solubility in water (10 mg in 1 ml H2O, shaken, centrifuged, HPLC against DMSO solution)
Assay type: physicochemical
Conditions: 10 mg substance in 1 ml H2O, shaken 10 minutes, supernatant measured by HPLC
Description: The compounds of the general formula I according to the invention are distinguished in comparison to the substances described in WO 00/61551 by more advantageous physicochemical properties, in particular an improved solubility in water.
10 mg of the substance to be investigated were dissolved in 1 ml of DMSO, vigorously shaken for 10 minutes and then centrifuged for 10 minutes at 10000 rpm and diluted with a mixture of 5% CH3CN/H2O+0.1% TFA 1:10.
10 mg of substance were mixed with 1 ml of H2O, vigorously shaken for 10 minutes and centrifuged for 10 minutes at 10000 rpm. The supernatant was removed and likewise diluted. Both solutions were measured by HPLC (column: MACHEREY & NAGEL, Nucleosil C18 PPN, 100×2.1 mm ID, 5μ, temp: 40° C.) and the concentration of the aq. solution was determined.

**Q.** Which “Solubility (H2O)” value does the source give for `CCOC(=O)N[C@@H](Cn1cc(C)c(N2CCC(CNc3nc4ccccc4[nH]3)CC2)nc1=O)C(=O)O.Cl` [(2S)-3-(4-{4-[(1H-Benzimidazol-2-ylamino)methyl]-1-piperidlnyl}-5-methyl-2-oxo-1(2H)-pyrimidinyl)-2-[(ethoxycarbonyl)amino]propanoic acid (hydrochloride)] here?
**A.** 560 µg/mL

Same assay, conditions: water, thermodynamic from solid, 10 mg substance in 1 ml H2O, shaken 10 minutes, supernatant measured by HPLC

**Q.** Which solubility at 10 min does the source give for `CC(=O)N[C@@H](Cn1cc(C)c(N2CCC(CNc3nc4ccccc4[nH]3)CC2)nc1=O)C(=O)O.Cl` [(2S)-2-(Acetylamino)-3-(4-{4-[(1H-benzimidazol-2-ylamino)methyl]-1-piperidinyl}-5-methyl-2-oxo-1(2H)-pyrimidinyl)propanoic acid (hydrochloride)] here?
**A.** 1000 µg/mL

**Q.** With `Cc1cn(C[C@H](NS(C)(=O)=O)C(=O)O)c(=O)nc1N1CCC(CNc2nc3ccccc3[nH]2)CC1.Cl` [(2S)-3-(4-{4-[(1H-Benzimidazol-2-ylamino)methyl]-1-piperidinyl}-5-methyl-2-oxo-1(2H)-pyrimidinyl)-2-[(methylsulfonyl)amino]propanoic acid (hydrochloride)] as the compound, how does the solubility at 10 min read?
**A.** < 50 µg/mL

**Q.** For `CC(=O)O.Cc1cn(C[C@H](NS(=O)(=O)c2ccccc2)C(=O)O)c(=O)nc1N1CCC(CNc2nc3ccccc3[nH]2)CC1` [(2S)-3-(4-{4-[(1H-Benzimidazol-2-ylamino)methyl]-1-piperidinyl}-5-methyl-2-oxo-1(2H)-pyrimidinyl)-2-[(phenylsulfonyl)amino]propanoic acid (acetate)], which solubility at 10 min is on record?
**A.** < 50 µg/mL

**Q.** Which solubility at 10 min does the source give for `Cc1cn(C[C@H](NC(=O)N(C)C)C(=O)O)c(=O)nc1N1CCC(CNc2nc3ccccc3[nH]2)CC1.Cl` [(2S)-3-(4-{4-[(1H-Benzimidazol-2-ylamino)methyl]-1-piperidinyl}-5-methyl-2-oxo-1(2H)-pyrimidinyl)-2-{[(dimethylamino)carbonyl]amino}propanoic acid (hydrochloride)] here?
**A.** 810 µg/mL

**Q.** For `CCNC(=O)N[C@@H](Cn1cc(C)c(N2CCC(CNc3nc4ccccc4[nH]3)CC2)nc1=O)C(=O)O` [(2S)-3-(4-{4-[(1H-Benzimidazol-2-ylamino)methyl]-1-piperidinyl}-5-methyl-2-oxo-1(2H)-pyrimidinyl)-2-{[(ethylamino)carbonyl]amino}propanoic acid], which solubility at 10 min is on record?
**A.** 860 µg/mL (≈ 1730 µM)

**Q.** For `Cc1cn(C[C@H](NS(=O)(=O)N(C)C)C(=O)O)c(=O)nc1N1CCC(CNc2nc3ccccc3[nH]2)CC1.Cl.Cl` [Example 2, (2S)-3-(4-{4-[(1H-Benzimidazol-2-ylamino)methyl]-1-piperidinyl}-5-methyl-2-oxo-1 (2H)-pyrimidinyl)-2-{[(dimethylamino)sulfonyl]amino}propionic acid (dihydrochloride)], which solubility at 10 min is on record?
**A.** 2500 µg/mL

Molecular target: T1, integrin αvβ3 (Homo sapiens, UniProt P05106+P06756)
T1 construct: from tissue; host or cells: human placenta
Test: Integrin αvβ3 assay: competition between vitronectin and test substance for binding to solid phase-bound integrin αvβ3
Conditions: competition with human vitronectin; result in words only
Description: For the identification and assessment of integrin αvβ3 ligands, a test system was used which is based on competition between the natural integrin αvβ3 ligand vitronectin and the test substance for binding to solid phase-bound integrin αvβ3. […]
coat microtiter plates with 250 ng/ml of integrin αvβ3 in 0.05 M NaHCO3 pH 9.2; 0.1 ml/well; overnight/4° C. saturate with 1% milk powder/assay buffer; 0.3 ml/well; 0.5 h/RT wash 3× with 0.05% Tween 20/assay buffer test substance in 0.1% milk powder/assay buffer, 50 μl/well +0 μg/ml or 2 μg/ml of human vitronectin (Boehringer Ingelheim T007) in 0.1% milk powder/assay buffer, 50 μl/well; 1 h/RT […]
1 μg/ml of anti-human vitronectin antibody coupled to peroxidase (Kordia SAVN-APHRP) in 0.1% milk powder/assay buffer; 0.1 ml/well; 1 h/RT […]
0.1 ml/well of peroxidase substrate stop reaction with 0.1 ml/well of 2 M H2SO4 measurement of the absorption at 450 nm
Integrin αvβ3: Human placenta is solubilized with Nonidet and integrin αvβ3 is affinity-purified on a GRGDSPK matrix (elution mit EDTA). Impurities due to integrin […] and human serum albumin, and the detergent and EDTA are removed by anion exchange chromatography. […]

**Q.** With `Cc1cn(C[C@H](NS(=O)(=O)N(C)C)C(=O)O)c(=O)nc1N1CCC(CNc2nc3ccccc3[nH]2)CC1.Cl.Cl` [Example 2, (2S)-3-(4-{4-[(1H-Benzimidazol-2-ylamino)methyl]-1-piperidinyl}-5-methyl-2-oxo-1 (2H)-pyrimidinyl)-2-{[(dimethylamino)sulfonyl]amino}propionic acid (dihydrochloride)] as the compound, how does the “IC50 values (concentration of the ligand at which 50% of the ligand is displaced)” value read?
**A.** best results

**Q.** Which “IC50 values (concentration of the ligand at which 50% of the ligand is displaced)” value does the source give for `Cc1cn(C[C@H](NS(=O)(=O)N(C)C)C(=O)O)c(=O)nc1N1CCC(CNc2ccccn2)CC1` [Example 9, (2S)-2-{[(Dimethylamino)sulfonyl]amino}-3-(5-methyl-2-oxo-4-{4-[(2-pyridinylamino)-methyl]-1-piperidinyl}-1 (2H)-pyrimidinyl)propionic acid] here?
**A.** best results
